Measurements reported in patent publication US20230372313A1, “METHODS FOR REDUCING GLYCOSPHINGOLIPID CONCENTRATION IN BRAIN TISSUE AND METHODS OF TREATMENT OF NEURODEGENERATIVE DISEASES INVOLVING THE SAME” (GENZYME CORPORATION, priority 2020, published 2023).

Columns and labels:
Format in all cases: in vivo, human
[1] = CSF concentration of Compound 2 in PD participants (LC-MS/MS); settings: for CSF concentration, mean: week 4, 2-4 h postdose; for CSF concentration, Fold increase vs low dose: week 4
Description: Participants were randomised to 3 doses of once-daily orally administered Compound 2 or placebo, in sequential cohort design, and were followed up to 36 weeks (52 weeks for Japanese participants). Participants in the low-dose group received 4 mg of Compound 2 as a once daily oral dose; participants in the mid-dose group received 8 mg of Compound 2 a once daily oral dose; and participants in the high-dose group received 15 mg of Compound 2 a once daily oral dose.
The secondary outcome was to evaluate the pharmacokinetic profile of Compound 2 in plasma and cerebrospinal fluid (CSF) over a 4-week period. Plasma pharmacokinetic parameters included maximum plasma concentration (Cmax), time to Cmax (tmax), and area under the plasma concentration versus time curve from 0 to 24 h (AUC0-24). All parameters were assessed at Week 0 and Week 4 after treatment. In addition, AUC0-48 was assessed at Week 0, trough plasma concentration observed just before treatment administration during repeated dosing (Ctrough) was assessed at Weeks 2, 4, and 8 (FIG. 3), and total systemic clearance from plasma at steady state (CLSS/F) was assessed at Week 4. Plasma samples were collected at 1 hour pre-dose and 1, 2, 4, 8, 24, and 48 hours postdose. Compound 2 concentration in plasma was determined using a liquid chromatography tandem mass spectrometry method with a lower limit of quantification of 0.500 ng/mL. CSF samples were collected by lumbar puncture during the screening period (within 14 days prior to randomisation) or on the day of randomisation, and at Week 4, within 2 to 4 hours postdose. Compound 2 concentration in CSF was determined using a liquid chromatography tandem mass spectrometry method with a lower limit of quantification of 0.100 ng/mL.

glucosylceramide (GL-1) [2] = assay: CSF glucosylceramide (GL-1) levels, pharmacodynamics
Text: (§1) Analyses were based on all available data from participants who enrolled in part 1 of the trial and were randomised to receive either Compound 2 or placebo for up to 52 weeks for Japanese participants and 36 weeks for the ROW population. As part 1 was an exploratory, dose-escalation study, the sample size was not based on a statistical power calculation. Participants included in the primary safety analyses were those who were randomized and received at least one dose of Compound 2 or placebo. A data monitoring committee was responsible for overseeing the safety of patients and the risk/benefit ratio throughout the study. Duration of exposure to Compound 2 was different among the doses, as per the sequential cohort design, with the low- and high-dose cohorts commencing the study first and last, respectively. For pharmacokinetics, plasma parameters were calculated using noncompartmental methods, from plasma Compound 2 concentrations obtained after single dose administration. AUC0-24 and AUC0-48 were calculated using the trapezoidal method over a predefined time period of 24 hours or 48 hours, respectively. CLss/F was calculated using the following equation: CLss/F=Dose/AUCτ, where τ is the dosing interval. For pharmacodynamics, percent reduction of plasma or CSF GL-1 from baseline was calculated as (value−baseline)/baseline×100. Formal statistical testing was not conducted on MDS-UPDRS scale assessments.
(§2) In exploratory analyses, Compound 2 pharmacodynamics in plasma and CSF were assessed by mean percent change in GL-1 levels from baseline through Week 4. GL-1 levels were assessed in plasma and CSF samples collected at the day of randomisation and Week 4, with plasma GL-1 levels also assessed at Week 2.
(§3) Concentrations of GL-1 in plasma and CSF were determined using a liquid chromatography tandem mass spectrometry method. Secondary pharmacokinetic outcomes were evaluated over a 4-week period of once-daily Compound 2 dosing (Table 7).

glucosylceramide (GL-1) [3] = assay: Plasma glucosylceramide (GL-1) levels, pharmacodynamics
Text: as §1, §2, §3

[4] = Japan, High 15 mg once daily oral, n = 3
[5] = Japan, Low 4 mg once daily oral, n = 3
[6] = Japan, Mid 8 mg once daily oral, n = 3
[7] = Japanese cohort, high-dose 15 mg
[8] = Japanese cohort, medium-dose 8 mg
[9] = ROW participants, high-dose 15 mg
[10] = ROW participants, low-dose 4 mg
[11] = ROW participants, medium-dose 8 mg
[12] = ROW, High 15 mg once daily oral, n = 4, CSF sample not collected for 1 participant
[13] = ROW, Low 4 mg once daily oral, n = 4
[14] = ROW, Mid 8 mg once daily oral, n = 5
[15] = ROW, High 15 mg once daily oral, n = 4

SMILES: CC(C)(NC(=O)O[C@@H]1CN2CCC1CC2)c1csc(-c2ccc(F)cc2)n1 [Compound 2, (S)-quinuclidin-3-yl (2-(2-(4-fluorophenyl)thiazol-4-yl)propan-2-yl)carbamate]
- CSF concentration, mean [1, 4]: 10.1 ng/mL
- CSF concentration, mean [1, 5]: 2.11 ng/mL
- CSF concentration, mean [1, 6]: 4.33 ng/mL
- CSF concentration, mean ([1]; ROW, High 15 mg once daily oral, sample not collected for 1 of n = 4): 5.96 ng/mL
- CSF concentration, mean ([1]; ROW, Low 4 mg once daily oral, 1 of n = 4 not included): 1.85 ng/mL
- CSF concentration, mean ([1]; ROW, Mid 8 mg once daily oral, 2 of n = 5 not included): 3.15 ng/mL
- CSF concentration, Fold increase vs low dose ([1]; Japan, High 15 mg vs Low 4 mg): 4.79 fold
- CSF concentration, Fold increase vs low dose ([1]; Japan, Mid 8 mg vs Low 4 mg): 2.05 fold
- CSF concentration, Fold increase vs low dose ([1]; ROW, High 15 mg vs Low 4 mg): 3.22 fold
- CSF concentration, Fold increase vs low dose ([1]; ROW, Mid 8 mg vs Low 4 mg): 1.70 fold
- increase of Compound 2 concentration in CSF with dose ([1]; Japanese and ROW cohorts, 4, 8, 15 mg): close to dose-proportional manner
- CSF GL-1, Week 4 (mean) (glucosylceramide (GL-1) [2]; [4]): 2.770 ng/mL
- CSF GL-1, Week 4, Change from baseline (%) (mean) (glucosylceramide (GL-1) [2]; [4]): −72.0%
- CSF GL-1, Week 4, Change from baseline (mean) (glucosylceramide (GL-1) [2]; [4]): -6.663 ng/mL
- CSF GL-1, Week 4 (mean) (glucosylceramide (GL-1) [2]; [5]): 3.843 ng/mL
- CSF GL-1, Week 4, Change from baseline (%) (mean) (glucosylceramide (GL-1) [2]; [5]): −21.7%
- CSF GL-1, Week 4, Change from baseline (mean) (glucosylceramide (GL-1) [2]; [5]): -1.733 ng/mL
- CSF GL-1, Week 4 (mean) (glucosylceramide (GL-1) [2]; [6]): 3.027 ng/mL
- CSF GL-1, Week 4, Change from baseline (%) (mean) (glucosylceramide (GL-1) [2]; [6]): −67.0%
- CSF GL-1, Week 4, Change from baseline (mean) (glucosylceramide (GL-1) [2]; [6]): -5.023 ng/mL
- mean reduction in CSF GL-1 at Week 4 (glucosylceramide (GL-1) [2]; [7]): 72.0%
- mean reduction in CSF GL-1 at Week 4 (glucosylceramide (GL-1) [2]; Japanese cohort, low-dose 4 mg): 21.7%
- mean reduction in CSF GL-1 at Week 4 (glucosylceramide (GL-1) [2]; [8]): 67.0%
- mean reduction in CSF GL-1 at Week 4 (glucosylceramide (GL-1) [2]; [9]): 74.3%
- mean reduction in CSF GL-1 at Week 4 (glucosylceramide (GL-1) [2]; [10]): 41.0%
- mean reduction in CSF GL-1 at Week 4 (glucosylceramide (GL-1) [2]; [11]): 58.0%
- CSF GL-1, Week 4 (mean) (glucosylceramide (GL-1) [2]; [12]): 1.623 ng/mL
- CSF GL-1, Week 4, Change from baseline (%) (mean) (glucosylceramide (GL-1) [2]; [12]): −74.3%
- CSF GL-1, Week 4, Change from baseline (mean) (glucosylceramide (GL-1) [2]; [12]): -5.250 ng/mL
- CSF GL-1, Week 4 (mean) (glucosylceramide (GL-1) [2]; [13]): 4.315 ng/mL
- CSF GL-1, Week 4, Change from baseline (%) (mean) (glucosylceramide (GL-1) [2]; [13]): −41.0%
- CSF GL-1, Week 4, Change from baseline (mean) (glucosylceramide (GL-1) [2]; [13]): -2.433 ng/mL
- CSF GL-1, Week 4 (mean) (glucosylceramide (GL-1) [2]; [14]): 4.406 ng/mL
- CSF GL-1, Week 4, Change from baseline (%) (mean) (glucosylceramide (GL-1) [2]; [14]): −58.0%
- CSF GL-1, Week 4, Change from baseline (mean) (glucosylceramide (GL-1) [2]; [14]): -6.376 ng/mL
- decrease in CSF GL-1 levels from baseline (glucosylceramide (GL-1) [2]; highest dose (15 mg), Japanese and ROW cohorts): 72.0%-74.3%
- brain penetration (glucosylceramide (GL-1) [2]; oral administration, indicated by CSF GL-1 decrease): brain-penetrant on oral administration
- decrease of CSF GL-1 levels from baseline versus dose (glucosylceramide (GL-1) [2]; over 4 weeks): dose-dependent manner
- Plasma GL-1, Week 2 (mean) (glucosylceramide (GL-1) [3]; [4]): 1.231 µg/mL
- Plasma GL-1, Week 2, Change from baseline (%) (mean) (glucosylceramide (GL-1) [3]; [4]): −77.2%
- Plasma GL-1, Week 2, Change from baseline (mean) (glucosylceramide (GL-1) [3]; [4]): -4.285 µg/mL
- Plasma GL-1, Week 4 (mean) (glucosylceramide (GL-1) [3]; [4]): 1.149 µg/mL
- Plasma GL-1, Week 4, Change from baseline (%) (mean) (glucosylceramide (GL-1) [3]; [4]): −79.3%
- Plasma GL-1, Week 4, Change from baseline (mean) (glucosylceramide (GL-1) [3]; [4]): -4.368 µg/mL
- Plasma GL-1, Week 2 (mean) (glucosylceramide (GL-1) [3]; [5]): 2.230 µg/mL
- Plasma GL-1, Week 2, Change from baseline (%) (mean) (glucosylceramide (GL-1) [3]; [5]): −63.6%
- Plasma GL-1, Week 2, Change from baseline (mean) (glucosylceramide (GL-1) [3]; [5]): -3.797 µg/mL
- Plasma GL-1, Week 4 (mean) (glucosylceramide (GL-1) [3]; [5]): 2.097 µg/mL
- Plasma GL-1, Week 4, Change from baseline (%) (mean) (glucosylceramide (GL-1) [3]; [5]): −66.1%
- Plasma GL-1, Week 4, Change from baseline (mean) (glucosylceramide (GL-1) [3]; [5]): -3.930 µg/mL
- Plasma GL-1, Week 2 (mean) (glucosylceramide (GL-1) [3]; [6]): 1.507 µg/mL
- Plasma GL-1, Week 2, Change from baseline (%) (mean) (glucosylceramide (GL-1) [3]; [6]): −67.5%
- Plasma GL-1, Week 2, Change from baseline (mean) (glucosylceramide (GL-1) [3]; [6]): -3.133 µg/mL
- Plasma GL-1, Week 4 (mean) (glucosylceramide (GL-1) [3]; [6]): 1.340 µg/mL
- Plasma GL-1, Week 4, Change from baseline (%) (mean) (glucosylceramide (GL-1) [3]; [6]): −70.7%
- Plasma GL-1, Week 4, Change from baseline (mean) (glucosylceramide (GL-1) [3]; [6]): -3.300 µg/mL
- mean reduction in plasma GL-1 at Week 4 (glucosylceramide (GL-1) [3]; [7]): 79.3%
- mean reduction in plasma GL-1 at Week 4 (glucosylceramide (GL-1) [3]; Japanese cohort, low-dose 4 mg): 66.1%
- mean reduction in plasma GL-1 at Week 4 (glucosylceramide (GL-1) [3]; [8]): 70.7%
- mean reduction in plasma GL-1 at Week 4 (glucosylceramide (GL-1) [3]; [9]): 77.7%
- mean reduction in plasma GL-1 at Week 4 (glucosylceramide (GL-1) [3]; [10]): 59.0%
- mean reduction in plasma GL-1 at Week 4 (glucosylceramide (GL-1) [3]; [11]): 71.0%
- Plasma GL-1, Week 2 (mean) (glucosylceramide (GL-1) [3]; [15]): 1.469 µg/mL
- Plasma GL-1, Week 2, Change from baseline (%) (mean) (glucosylceramide (GL-1) [3]; [15]): −73.9%
- Plasma GL-1, Week 2, Change from baseline (mean) (glucosylceramide (GL-1) [3]; [15]): -4.119 µg/mL
- Plasma GL-1, Week 4 (mean) (glucosylceramide (GL-1) [3]; [15]): 1.253 µg/mL
- Plasma GL-1, Week 4, Change from baseline (%) (mean) (glucosylceramide (GL-1) [3]; [15]): −77.7%
- Plasma GL-1, Week 4, Change from baseline (mean) (glucosylceramide (GL-1) [3]; [15]): -4.335 µg/mL
- Plasma GL-1, Week 2 (mean) (glucosylceramide (GL-1) [3]; [13]): 2.340 µg/mL
- Plasma GL-1, Week 2, Change from baseline (%) (mean) (glucosylceramide (GL-1) [3]; [13]): −54.3%
- Plasma GL-1, Week 2, Change from baseline (mean) (glucosylceramide (GL-1) [3]; [13]): -2.815 µg/mL
- Plasma GL-1, Week 4 (mean) (glucosylceramide (GL-1) [3]; [13]): 2.093 µg/mL
- Plasma GL-1, Week 4, Change from baseline (%) (mean) (glucosylceramide (GL-1) [3]; [13]): −59.0%
- Plasma GL-1, Week 4, Change from baseline (mean) (glucosylceramide (GL-1) [3]; [13]): -3.063 µg/mL
- Plasma GL-1, Week 2 (mean) (glucosylceramide (GL-1) [3]; [14]): 1.644 µg/mL
- Plasma GL-1, Week 2, Change from baseline (%) (mean) (glucosylceramide (GL-1) [3]; [14]): −69.9%
- Plasma GL-1, Week 2, Change from baseline (mean) (glucosylceramide (GL-1) [3]; [14]): -3.830 µg/mL
- Plasma GL-1, Week 4 (mean) (glucosylceramide (GL-1) [3]; [14]): 1.578 µg/mL
- Plasma GL-1, Week 4, Change from baseline (%) (mean) (glucosylceramide (GL-1) [3]; [14]): −71.0%
- Plasma GL-1, Week 4, Change from baseline (mean) (glucosylceramide (GL-1) [3]; [14]): -3.896 µg/mL
- decrease of plasma GL-1 levels from baseline versus dose (glucosylceramide (GL-1) [3]; over 4 weeks): dose-dependent manner
